Test results reported in PubChem BioAssay (NCI).
Several values for one entry are separate records, joined by “and”; a condition that tells them apart may be missing. Equal entries are not always repeated.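 In this assay, cells in 96-well plates receive the compound at five concentrations for 48 hours. Endpoints are linearly interpolated between the surrounding concentrations. GI50 marks 50% less growth. The concentration for full growth arrest is given as TGI.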

Assays:
Experiment in all cases: NCI tumour cell line growth inhibition, 48 h
RXF 393 renal = test system: RXF 393 renal
TK-10 renal = test system: TK-10 renal
UACC-62 melanoma = test system: UACC-62 melanoma
NCI-H522 lung = test system: NCI-H522 lung
CAKI-1 renal = test system: CAKI-1 renal
SN12C renal = test system: SN12C renal
CCRF-CEM leukemia = test system: CCRF-CEM leukemia
HT29 colon = test system: HT29 colon

SMILES	GI50 (RXF 393 renal) [µM]	TGI (RXF 393 renal) [µM]	GI50 (TK-10 renal)	TGI (TK-10 renal) [µM]	GI50 (UACC-62 melanoma) [µM]	TGI (UACC-62 melanoma) [µM]	GI50 (NCI-H522 lung)	TGI (NCI-H522 lung) [µM]	GI50 (CAKI-1 renal)	TGI (CAKI-1 renal) [µM]	GI50 (SN12C renal) [µM]	TGI (SN12C renal) [µM]	GI50 (CCRF-CEM leukemia)	TGI (CCRF-CEM leukemia) [µM]	GI50 (HT29 colon) [µM]	TGI (HT29 colon) [µM]
CS(=O)(=O)c1ccc(C(F)(F)F)cc1NC(=O)Nc1cnc(Oc2ccc(-c3cc(Cl)cnc3N)cc2)nc1	1.79	4.61	2.21 µM	6.92	1.82	4.72	2.23 µM	6.64	2.98 µM	22.4	2.25	5.26	3.22 µM	> 100	2.24	7.52
Nc1cc(C(F)F)c(-c2nc(N3[C@@H]4CC[C@H]3COC4)nc(N3[C@@H]4CC[C@H]3COC4)n2)cn1	0.18	0.816	0.156 µM	3.22	0.212	2.2	0.295 µM	> 100	0.188 µM	3.21	0.342	> 100	0.69 µM	> 100	0.628	> 100
COc1ccc(OC)c(-c2nc3sccn3c2/C=C2/C(=O)Nc3ccccc32)c1	0.553	17.9	1.29 µM	20.2	0.293	12.8	0.294 µM	17.3	0.506 µM	8.68	4.65	33.8	0.273 µM	5.37	0.355	
COc1ccc2[nH]cc(/C=C3\C(=O)Nc4ccccc43)c2c1	2.95	13.3	7.98 µM	31.3	4.09	20.6	4.59 µM	19.6	4.12 µM	26.4	7.37	39.9	3.94 µM	18.8	3.6	14.3
O=C1OC(c2ccc([N+](=O)[O-])cc2)=N/C1=C\c1ccc(O)cc1		> 100		> 100		> 100		> 100		> 100		> 100		> 100		> 100
NC(=O)c1c(OCc2c(F)cc(Br)cc2F)nsc1NC(=O)NCCCCN1CCCC1	0.362	1.71	2.06 µM	7.94	1.82	3.93	1.83 µM	5.32	2.49 µM	> 10	1.08	8.28	2.77 µM	8.17	1.46	6.77
COc1cc(/C=C2\C(=O)N(c3c(Cl)cccc3Cl)c3ccccc32)cc(OC)c1O	1.86	11.6	1.21 µM	15.6	0.594	13.2	0.501 µM	4.01	0.455 µM	19.1	1.01	17.6	0.555 µM	19.9	2.17	8.62
CCOC(=O)C(=Cc1ccc(Br)cc1)C(=O)OCC	1.15	2.55	3.13 µM	8.57	1.39	3.29	1.75 µM	4.22	1.76 µM	5.59	2.03	4.21	0.838 µM	7.34	2.25	5.86
CSC(=S)NN=C1CCCCC1		> 100		89.7		38		88.7		65.2		84.9		87.8		> 100
O=C1C(Nc2ccccn2)=C(I)C(=O)c2ncccc21	1.25	2.75	1.87 µM	3.65	1.28	2.67	0.725 µM	2.5	0.826 µM	2.12	0.889	2.56	0.552 µM	5.19	2.75	8.48
C/C=C(/C)C(=O)OC1C=C(CO)C(=O)C(OC(=O)/C(C)=C\C)C1C(C)C (centres undefined)	1.13	2.54	1.38 µM	2.79	0.644	1.98	0.63 µM	2.23	1.34 µM	2.62	0.546	1.59	0.321 µM	4.19	0.625	2.33
O=C(N/N=C/c1cc2ccccc2c2ccccc12)c1cc(O)c(O)c(O)c1	2.77	10.1	4.48 µM	30.7	2.75	9.4	2.06 µM	5.64	3.72 µM	19.1	4.99	30	2.87 µM	> 100	9.95	31
O=c1cccc(C#CCCCCOC2CCCO2)o1 (centres undefined)	6.77	50.2	13.4 µM	35.6	15.9	> 56.8	3.77 µM	> 64.9	11.4 µM	33.6	98.6	> 100	7.14 µM	> 79.9	16.5	> 60.5
C=CC(=O)Nc1cc2c(Nc3ccc(OCc4ccccn4)c(Cl)c3)ncnc2cc1OCCN1CCOCC1	0.784	3.8	0.0267 µM	> 100	2.85	17.4	0.366 µM	22.6	1.86 µM	19.7	1.49	> 100	2.98 µM	> 100	4.04	> 100
C#C[C@]1(O)CC[C@H]2[C@@H]3CC=C4c5nc(Nc6ccc(OC)cc6OC)sc5CC[C@]4(C)[C@H]3CC[C@@]21C	0.262	0.608	3.9 µM	15.6	1.76	5.04	2.22 µM	5.79	1.39 µM	5.74	3.36	19.2	0.544 µM	11	1.29	6.4
Cc1ccc(NC2=C(Cl)C(=O)c3nc(C)ccc3C2=O)cc1	1.57	2.96	2.27 µM	3.81	1.57	2.97	1.88 µM	4.53	1.36 µM	2.68	1.37	2.85	2.65 µM	> 100	2.79	8.46

SMILES	GI50 (RXF 393 renal) [µM]	TGI (RXF 393 renal) [µM]	GI50 (TK-10 renal)	TGI (TK-10 renal) [µM]	GI50 (UACC-62 melanoma) [µM]	TGI (UACC-62 melanoma) [µM]	GI50 (NCI-H522 lung)	TGI (NCI-H522 lung) [µM]	GI50 (CAKI-1 renal)	TGI (CAKI-1 renal) [µM]	GI50 (SN12C renal) [µM]	TGI (SN12C renal) [µM]	GI50 (CCRF-CEM leukemia)	TGI (CCRF-CEM leukemia) [µM]	GI50 (HT29 colon) [µM]	TGI (HT29 colon) [µM]
COC(=O)c1c2c(c(C)[n+]([O-])c1C)C(=O)C(NCc1ccc(F)c(Cl)c1)=CC2=O	1.73	4.05	3.76 µM	16	1.38	3.12	1.82 µM	4.7	2.52 µM	10.4	1.52	3.66	3.03 µM	22.8	1.35	> 100
O=C1c2cccc3c(N4CCN(c5ccc6c7c(cccc57)C(=O)N(CCN5CCNCC5)C6=O)CC4)ccc(c23)C(=O)N1CCN1CCNCC1	16.8	33	14.7 µM	33.4	15	30.2	18 µM	44.2	14.7 µM	33	7.46	23.2	3.09 µM	18.4	3.91	> 100
O=[N+]([O-])c1ccc(N(CCO)CCO)c2c1no[n+]2[O-]	1.32	4.84	2.2 µM	8.22	1.24	3.56	0.926 µM	3.38	0.471 µM	2.36	1.61	9.28	0.704 µM	4.71	1.84	10.7
O=C1/C(=C\c2ccccc2)c2ccccc2N1Cc1ccccc1		16.1		17.4		14.3		22		13.2		28.9		12.6		14.4
NC(N)=NC(N)=NCCc1ccccc1	> 100	> 100	58.6 µM and > 100 µM	> 100	> 100	> 100	44.7 µM and > 100 µM	> 100	58.5 µM and > 100 µM	> 100	> 100	> 100	56.1 µM and > 100 µM	> 100	> 100	> 100
O=C(c1cccs1)c1c(C(F)(F)F)n([O-])c2cc(F)c(F)cc2[n+]1=O	2.42	7.16	1.36 µM	3.99	1.54	3.58	1.84 µM	3.13	1.25 µM	4	1.38	3.59	0.18 µM	0.729	9.5	50
Cc1cc(NC(=O)CCc2ccc(N3C(N)=NC(N)=NC3(C)C)cc2)ccc1S(=O)(=O)F	1.35	> 100	4.94 µM	> 100	0.14	> 100	3.66 µM	> 100		> 100	0.447	> 100	0.243 µM	> 100	< 0.0374	> 100
N#Cc1cccc(Nc2nccc(-c3cnn4ncccc34)n2)c1	0.00269	0.00791	0.00603 µM	0.0172	0.00396	0.0116	0.00752 µM	0.0394	0.00729 µM	1.17	0.00674	> 25	0.006 µM	> 25	0.00572	0.034
CCN(C)S(=O)(=O)Nc1cccc(Nc2ncnc3cc(NC(=O)CCl)ccc23)c1Cl	3.57	7.42	4.64 µM	13.3	1.18	4.46	0.693 µM	2.03	3.15 µM	8.5	1.08	4.46	0.656 µM	3.77	1.33	4.83
O=S(=O)(Nc1ccc(Cl)c(C(F)(F)F)c1)c1ccc(-c2cnc(C3CC3)o2)cc1	0.381	1.66	1.8 µM	9.58	0.203	2.2	0.149 µM	3.25	0.162 µM	5.75	1.05	4.71	0.285 µM	> 25.1	0.157	
CC1=COC2=C(C)C(=O)C(=O)c3c(C)ccc1c32		21.5		> 92.6		11.9		8.27		> 63.4		14.1		> 76.1		12.8
CN(C)CCCC1(c2ccc(F)cc2)OCc2cc(-c3ccc4cc[nH]c4c3)ccc21 (centres undefined)	2.48	7.56	2.03 µM	4.09	1.85	3.77	2.07 µM	4.49	1.63 µM	3.11	1.73	3.56	2.65 µM	7.12	2.33	5.93
O=C1Nc2ccccc2SC1C1SC(=S)N(Cc2ccccc2)C1=O (centres undefined)	4.21	> 27.7	5.71 µM	22	10.6	23.3	5.29 µM	19.1	4.53 µM	17.6	4.79	15.2	1.76 µM	> 29.8	3.98	39.8
Nc1ccc(-c2ccc(-c3nc4ccccc4[nH]3)cc2)cc1	23.5	82.9		> 100	0.61	3.61	1.1 µM	> 53.9		> 54.7	19.6	> 100	2.77 µM	> 78.7	0.606	21.6
N#Cc1ccc(-n2cnc(NC(=O)[C@H]3CCN(C#N)C3)c2)cc1	0.374	2.6	1.49 µM	7.83	0.892	4.47	0.567 µM	4.43	2.48 µM	> 100	2.72	> 70.3	1.03 µM	> 100	1.29	7.3
